According to publication PMC6270288, “Yellow Pigments, Fomitellanols A and B, and Drimane Sesquiterpenoids, Cryptoporic Acids P and Q, from Fomitella fraxinea and Their Inhibitory Activity against COX and 5-LO” (Molecules, 2013):

Key:
COX-2 = molecular target: T1, COX-2 (Ovis aries, UniProt P79208); assay: COX-2-catalyzed prostaglandin biosynthesis assay in vitro; assay type: biochemical, sheep; settings: for inhibition at 10 µg/mL: 10 μg/mL, COX-2 from sheep placenta
T1 construct: isolated from sheep placenta, purity 70%; purchased Cayman Chemical Company; host or cells: sheep placenta (tissue isolate)
T1 sequence (P79208 17-603): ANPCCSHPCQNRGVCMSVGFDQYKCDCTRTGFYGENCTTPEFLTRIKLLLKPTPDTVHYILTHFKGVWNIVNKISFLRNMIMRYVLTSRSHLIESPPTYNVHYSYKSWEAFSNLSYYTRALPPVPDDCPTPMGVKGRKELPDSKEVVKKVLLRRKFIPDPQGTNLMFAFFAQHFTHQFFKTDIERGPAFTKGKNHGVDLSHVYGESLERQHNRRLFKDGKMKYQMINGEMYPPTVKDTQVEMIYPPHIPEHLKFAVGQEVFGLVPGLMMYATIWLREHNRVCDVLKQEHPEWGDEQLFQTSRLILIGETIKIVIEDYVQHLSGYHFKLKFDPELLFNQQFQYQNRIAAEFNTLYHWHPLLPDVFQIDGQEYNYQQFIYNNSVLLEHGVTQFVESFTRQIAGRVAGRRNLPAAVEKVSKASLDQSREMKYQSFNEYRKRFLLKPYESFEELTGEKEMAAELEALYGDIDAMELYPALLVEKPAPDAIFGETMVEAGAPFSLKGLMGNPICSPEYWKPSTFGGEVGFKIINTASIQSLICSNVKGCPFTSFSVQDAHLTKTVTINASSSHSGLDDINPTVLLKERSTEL
Protocol: (§1) Experiments were performed according to Futaki et al. with modification. In brief, 200 U of COX-1 or COX-2 enzyme was suspended in 0.1 M Tris-HCl buffer (PH 7.5) containing hematin (1 μM) and phenol (2 mM), as co-factors. The reaction medium was preincubated with sample for 2 min at 37 °C, and 51.4 μM of […] arachidonic acid (Sigma, St. Louis, MO, USA) was added and incubated for 2 min at 37 °C. To terminate the reaction and extract PGE2, 400 μL of n-hexane/EtOAc (2:1, V/V) was added to the reaction mixture and the preparation was centrifuged at 2,000 rpm for 1 min. The organic solvent phase was discarded. The extraction procedure was repeated twice, then 50 μL EtOH was added to the aqueous phase, and the preparation was at 2,000 rpm for 1 min. The amount of PGE2 was measured by radioimmunoassay using a liquid scintillation counter. COX-1 (EC1.14.99.1, isolated from ram seminal vesicles; Cayman Chemical Company, Ann Arbor, MI, USA) and COX-2 (isolated from sheep placenta, purity 70%; Cayman Chemical Company) were used.

COX-1 = molecular target: T2, COX-1 (Ovis aries, UniProt P05979); assay: COX-1-catalyzed prostaglandin biosynthesis assay in vitro; assay type: biochemical, ram; settings: for inhibition at 10 µg/mL: 10 μg/mL, COX-1 from ram seminal vesicles; for IC50: triplicate five-point titration
T2 construct: isolated from ram seminal vesicles; purchased Cayman Chemical Company; host or cells: ram seminal vesicles (tissue isolate)
T2 sequence (P05979 25-600): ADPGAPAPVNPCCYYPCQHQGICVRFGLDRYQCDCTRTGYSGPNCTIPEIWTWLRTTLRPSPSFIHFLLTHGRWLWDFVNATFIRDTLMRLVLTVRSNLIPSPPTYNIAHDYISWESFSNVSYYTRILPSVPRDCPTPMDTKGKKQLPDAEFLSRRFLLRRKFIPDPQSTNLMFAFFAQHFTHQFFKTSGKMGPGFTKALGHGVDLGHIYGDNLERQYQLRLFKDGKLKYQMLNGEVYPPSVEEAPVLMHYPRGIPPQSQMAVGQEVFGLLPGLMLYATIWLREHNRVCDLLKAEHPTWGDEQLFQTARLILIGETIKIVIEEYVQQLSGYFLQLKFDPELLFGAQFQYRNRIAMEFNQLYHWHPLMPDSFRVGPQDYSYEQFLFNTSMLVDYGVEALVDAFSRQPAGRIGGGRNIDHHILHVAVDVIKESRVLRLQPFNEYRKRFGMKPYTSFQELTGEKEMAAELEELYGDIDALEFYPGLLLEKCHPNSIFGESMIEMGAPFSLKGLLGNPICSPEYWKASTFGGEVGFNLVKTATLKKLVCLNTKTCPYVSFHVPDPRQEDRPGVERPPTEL
Protocol: as §1

5-LO = molecular target: T3, 5-LO (Rattus norvegicus, UniProt P12527); assay: Measurement of RBL-1 5-lipoxygenase activity; assay type: biochemical; settings: RBL-1 cell homogenate; for inhibition at 10 µg/mL: 10 μg/mL; for IC50: triplicate five-point titration
T3 construct: RBL-1 cell homogenate (1.5 × 10^7 cells); endogenous in cells; host or cells: RBL-1 (rat basophilic leukemia-1) cell homogenate
T3 sequence (P12527 1-673): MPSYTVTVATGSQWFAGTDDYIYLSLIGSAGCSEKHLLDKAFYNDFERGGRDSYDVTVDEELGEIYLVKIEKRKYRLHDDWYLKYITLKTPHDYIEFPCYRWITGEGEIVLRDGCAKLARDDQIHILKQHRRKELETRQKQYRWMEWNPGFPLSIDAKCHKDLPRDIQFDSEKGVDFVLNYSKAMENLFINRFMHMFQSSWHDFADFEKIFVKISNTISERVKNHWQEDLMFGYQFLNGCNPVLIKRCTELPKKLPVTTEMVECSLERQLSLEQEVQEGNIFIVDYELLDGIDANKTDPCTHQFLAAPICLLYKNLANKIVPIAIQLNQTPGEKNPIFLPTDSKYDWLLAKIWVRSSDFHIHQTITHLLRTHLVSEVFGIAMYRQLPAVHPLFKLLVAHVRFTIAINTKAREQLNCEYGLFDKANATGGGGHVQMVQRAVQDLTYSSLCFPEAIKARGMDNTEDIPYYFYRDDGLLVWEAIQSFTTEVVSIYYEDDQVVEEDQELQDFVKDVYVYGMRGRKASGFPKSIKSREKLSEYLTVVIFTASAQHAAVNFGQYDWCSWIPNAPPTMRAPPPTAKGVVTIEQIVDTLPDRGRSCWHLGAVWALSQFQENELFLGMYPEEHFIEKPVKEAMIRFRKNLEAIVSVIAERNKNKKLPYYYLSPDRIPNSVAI
Protocol: The modified method of Blackman et al. was used. Rat basophilic leukemia-1 (RBL-1) cells were grown in RPMI-1640 medium containing 10% heat-inactivated newborn calf serum (NCS), penicillin 100 units/mL, and streptomycin […]. Cells were cultured at 37 °C in 5% CO2. The assay system (0.5 mL) consisted of 50 mM phosphate buffer (pH 7.4), the test compound, 2 mM CaCl2, 0.66 mM arachidonic acid, and RBL-1 cell homogenate (1.5 × 10^7 cells). Reaction mixtures were incubated at 37 °C for 3 min, and then MeOH (0.5 mL) was added to terminate the reaction. The mixture was centrifuged to remove the precipitated proteins, 5-HETE in the supernatant was analyzed by HPLC. The mixture was eluted through a Cosmosil 5C18 column (4.6 × 150 mm) at room temperature with 85% CH3CN at 235 nm.

SMILES	inhibition at 10 µg/mL (COX-2) [%]	inhibition at 10 µg/mL (COX-1) [%]	inhibition at 10 µg/mL (5-LO) [%]	IC50 (COX-1) [µM]	IC50 (5-LO) [µM]	inhibitory activities against COX-2 (in words) (COX-2)
C=C1CC[C@H]2[C@](C)(CO)CCC[C@]2(C)[C@H]1CO[C@@H](C(=O)O)[C@H](CC(=O)O)C(=O)OC [Compound 6, cryptoporic acid N]	19	35.8	28.9	–	–	–
CC(C)O[C@H]1Oc2ccc(O)c3c2[C@@]1(C)[C@H]1C(=O)C=C(CO)C1=C3 [Compound 1a, 5-hydroxy-7-hydroxymethyl-1-isopropoxy-9b-methyl-9a,9b-dihydro-H-2-oxa-cyclopenta[d]acenaphthylen-9-one]	7.5	90.5	84.7	47.7	15.1	–
C=C1CC[C@H]2[C@](C)(COC(C)=O)CCC[C@]2(C)[C@H]1CO[C@@H](C(=O)O)[C@H](CC(=O)O)C(=O)OC [Compound 3, Cryptoporic acid P]	1.7	40.2	14.9	–	–	–
C=C1CC[C@H]2[C@](C)(COC(C)=O)CCC[C@]2(C)[C@H]1CO[C@@H](C(=O)OC)[C@H](CC(=O)O)C(=O)OC [Compound 4, Cryptoporic acid Q]	10.3	66.5	50.1	78.8	204	–
C[C@]12c3c(ccc(O)c3C=C3C(CO)=CC(=O)[C@@H]31)O[C@@H]2O [Compound 1]	–	–	–	–	15.1	not apparent
